For assay [1], the system named is Age-Impaired (AI) Long-Evans rats. The assay is described as follows: Morris Water Maze retention trial, levetiracetam i.p. It counts as in vivo, rat. The method, then: The MWM apparatus consists of a large, circular pool (diameter 1.53 m; height, 0.58 m) filled with water (27° C.) that is made opaque through the addition of non-toxic pigment or some other substance. In the typical “hidden platform” version of the test, rats are trained to find a camouflaged white escape platform (height, 34.5 cm) that is positioned in the center of one quadrant of the maze about 1.0 cm below the water surface. This platform can be retracted to the bottom of the tank or raised to its normal position from outside the maze during behavioral testing. The location of the platform remains constant from trial to trial. Because there are no local cues that mark the position of the platform, the rat's ability to locate it efficiently from any starting position at the perimeter of the pool depends on using information surrounding the maze. The maze is surrounded by black curtains to which white patterns are affixed to provide a configuration of spatial cues. A second platform (height 37.5 cm), with its surface painted black is elevated 2 cm above the water surface during cue training to control for factors unrelated to cognition. The behavior of a rat in the pool is recorded by a camera that is suspended 2.5 m above the center of the pool. The camera is connected to a video tracking system (HVS Image Advanced Tracker VP200) and a PC computer running HVS software developed by Richard Baker of HVS Image, Hampton, UK. Six Age-Impaired (AI) Long-Evans rats (as characterized above) were tested for their memory of new spatial information in the MWM, under different drug/control treatment conditions (vehicle control and two different dosage levels of levetiracetam). The MWM protocol was substantially the same as the one described in Example 1. Specifically for this study, a retention trial was performed after the training trials, as described below. AI rats were given six training trials per training day with a 60-sec inter-trial interval between each training trial for two consecutive days. […]

The next assay concerns aMCI subjects. The arrangement: species or system human. The note with it: in vivo.
A further assay deals with aged-impaired (AI) rats. Description: Radial Arm Maze task with one-hour delay, levetiracetam and/or valproate. It counts as in vivo, rat. As to conditions: for effective in reducing the number of errors: levetiracetam on its own.
[2] abbreviates: levetiracetam 10 mg/kg/day i.p.

On to `CC[C@@H](C(N)=O)N1CCCC1=O` [levetiracetam, (2S)-2-(2-oxopyrrolidin-1-yl)butanamide], for which the figures for the “memory performance (time in target quadrant) compared to vehicle” value in assay [1] (levetiracetam 5 mg/kg/day i.p.) and in assay [1] (setting [2]) were “did not significantly improve” and “significantly improved memory”, respectively. Besides, the “time spent in the target annulus” value in assay [1] (setting [2]) is “effectivness of the 10 mg/kg/day levetiracetam treatment was also seen”. The “performance in Buschke Selective Reminding Test-Delayed Recall, Benton Visual Retention Test, Verbal Paired Associates Test-Recognition and -Delayed Recall” value in the assay with aMCI subjects is given as “fail to rescue performance”. Further, the “effective doses in the animal model” value with aged-impaired (AI) rats (AI rats, given acutely) lay within 5 to 10 mg/kg. For the same compound, the “performance of AI rats in the radial maze task” value in the assay with aged-impaired (AI) rats (levetiracetam 20 mg/kg) is “fails to improve the performance”. For the same compound, the “effective in reducing the number of errors” value is given as “not” with aged-impaired (AI) rats (1.25 mg/kg or 2.5 mg/kg i.p.) and “effective” in the assay on aged-impaired (AI) rats (5-10 mg/kg i.p.).

The record behind these values is US10806717B2, “Methods and compositions for improving cognitive function” (The Johns Hopkins University, priority 2013, dated 2020).
